From patent publication EP4324461A1, “(E)-N-CINAMOYLAMINOALKANOLES WITH MELANOGENESIS INHIBITORY ACTIVITY” (UNIWERSYTET JAGIELLONSKI, priority 2022, dated 2024)
Values after ≈ are worked out from the molar mass of the structure shown. Like-named read-outs stand apart in the source and are kept apart here.

Assays:
tyrosinase [1] = conditions: reference [11], cited from earlier work
tyrosinase [2] = conditions: cited from earlier work; for mechanism of tyrosinase inhibition: references [6], [7]
[3] = 7-day application of a cream to the skin before exposure to UV radiation; compared to untreated skin; reference [8]; cited from earlier work
[4] = system: Balb/c 3T3 murine fibroblast cell line; test: Phototoxicity in Balb/c 3T3 fibroblasts (neutral red uptake)
Description: Balb/c 3T3 cells, which are an immortalized murine fibroblast cell line, were purchased at ATTC and cultured in the medium recommended by the manufacturer (DMEM GlutaMAX, newborn calf serum (BCS), antibiotics). After multiplication, cells were placed in 96-well plates, which were incubated for 24 hours, after which all wells of the plates were washed with 150 µL of balanced salt solution (HBSS). Then, after drying the plates, 100 µL of a solution of the tested compounds in HBSS with 2% FBS was added to each well and incubated for an hour. After this time, some of the plates were irradiated using the Suntest CPS+ sunlight simulator from Atlas with appropriate filters cutting off radiation with a wavelength <320 nm (UVA radiation intensity 5 J/cm^2). The second part of the plates was placed in radiation-free conditions for the same period of time. After the exposure time, the liquid was removed from all plates and the wells were washed twice with 150 µL of HBSS, then supplemented with fresh culture medium and incubated for 24 hours in an incubator (37 °C, 5% CO2). Viability was assessed in the neutral red uptake test, which is based on the ability of the dye to penetrate only into living cells. Dye uptake was confirmed by absorbance measurement at 540 nm. […] The appropriate coefficients were also calculated: mean phototoxic effect (MPE) and photoirritation factor (PIF). PIF is the ratio of the IC50 values of unirradiated to irradiated cells, while MPE is based on the comparison of concentration-response curves. […]

[5] = system: reconstituted human epidermis EpiDerm; conditions: 21 h, 0.01 %
Description: An epidermis with an area of 0.6 cm^2 was used. After receiving the tissue, the inserts were transferred to fresh medium and incubated in an incubator (5% CO2, 37 °C). All work during epidermis culture and application of the tested compounds and formulations was carried out in a laminar air flow chamber, using aseptic principles and sterile reagents and utensils. […] The applied solutions and formulation were spread on the surface of the inserts using a sterile glass bulb headed Pasteur pipette. The plates were incubated in the incubator for 21 hours, after which the inserts were transferred to new 6-well plates with 0.9 mL DBPS. 1 plate was exposed to UVA radiation at a dose of 6 J/cm^2 using a solar light simulator (Solar Simulator, Atlas) as its source (+UVA plate). The second plate was placed in a dark place outside the incubator for the same period of time (-UVA plate). After exposure, inserts from both plates were rinsed with DPBS, dried with a sterile cotton bud and placed in new plates containing 0.9 mL of fresh growth medium and incubated for 21 hours. After this time, the MTT test was performed by placing the inserts in 0.3 mL of MTT solution in DMEM medium (concentration 1 mg/mL) for 3 hours. After this time, the formed formazan was extracted into isopropanol and the absorbance of all samples was read at 270 nm. […]

[6] = system: Chinese hamster ovary cell line (CHO-K1); test: Genotoxicity in the micronucleus test in CHO-K1 cells; format: cell-based
S. typhimurium TA100 = test: Ames microplate test, TA100; format: cell-based, Salmonella typhimurium; conditions: without S9;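 note: reference level is the mean solvent-control yellow wells plus SD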
Description: (§1) Bacteria were grown overnight in growth medium.
(§2) Table 9. Ames microplate test results.

S. typhimurium TA1537 = test: Ames microplate test, TA1537; format: cell-based, Salmonella typhimurium; conditions: without S9;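 note: reference level is the mean solvent-control yellow wells plus SD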
Description: as §1, §2

S. typhimurium TA98 = test: Ames microplate test, TA98; format: cell-based, Salmonella typhimurium; conditions: without S9;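 note: reference level is the mean solvent-control yellow wells plus SD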
Description: as §1, §2

[7] = system: Chinese hamster ovary cell line (CHO-K1); test: Cytotoxicity in CHO-K1 cells (MTT) before the micronucleus test; format: cell-based; conditions: 24 hours
Description: The assay was performed using a Chinese hamster ovary cell line (CHO-K1) purchased from the American Type Culture Collection (ATCC). The cells were cultured in F-12K medium with the addition of 10% fetal bovine serum (FBS) and antibiotics (streptomycin/penicillin) in an incubator at 37 °C and 5% CO2 concentration). Before the actual micronucleus test, a cytotoxicity assessment was performed to ensure that the actual test was performed only at safe concentrations. For this purpose, cells were transferred to 96-well plates and incubated with the tested compounds for 24 hours. After this time, the MTT test was performed and cell viability was assessed in comparison to the control group (cells cultured with DMSO at the same concentration as in the case of the tested samples).

tyrosinase from mushroom = test: Inhibition of commercial mushroom tyrosinase (L-DOPA or L-tyrosine substrate); format: biochemical
Description: The following substrates were used for the enzymatic reaction: L-tyrosine and L-3,4-dihyroxyphenylalanine (L-DOPA). Both substrates were used in independent experiments. According to the literature, the use of L-DOPA enables the assessment of tyrosinase diphenolase activity, and L-tyrosine - the tyrosinase monophenolase activity. The determinations were performed in 96-well plates, in each well there was placed: 170 µL or 127.5 µL of 50 mM phosphate buffer (pH = 6.8) with tyrosinase (1U/well or 3U/well) and 10 µL of a solution of the tested compound in DMSO (the final concentration in the well was 500 µM, 250 µM or 125 µM). The negative control used 10 µL of pure solvent (DMSO). To initiate the reaction, an appropriate substrate was added: L-tyrosine (62.5 µL of solution in phosphate buffer) or L-DOPA (20 µL of solution in phosphate buffer). After a 25-minute incubation, the absorbance was measured at 475 nm using a microplate reader. The percentage of inhibition of tyrosinase activity was calculated using the formula: [(AC -AT)/AC] × 100, where AC - is the absorbance of the negative control, AT - is the absorbance of the sample containing the tested compound.

S. typhimurium TA1535 = test: Ames microplate test, TA1535; conditions: without S9;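 note: bacteria exposed to compound 90 min at 37 °C, then kept 48 h at 37 °C with indicator medium in 384-well plates, scoring wells that turned yellow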
Description: (§3) The study used the Ames microplate test (Ames MPF™ Penta 2 by Xenometrix, Allschwil, Switzerland). Growth medium, exposure medium, indicator medium, positive controls, hepatic microsomal fraction, NADP, glucose-6-phosphate, Salmonella typhimurium and Escherichia coli strains were components of the purchased experimental kit. Bacteria were grown overnight in growth medium. They were then exposed to the test compound at the appropriate concentration in exposure medium without or with the rat microsomal fraction S9 in 24-well plates for 90 min at 37 °C with shaking. Then, indicator medium was added to the wells and pipetted into 384-well plates, which were incubated for 48 hours at 37 °C without shaking. Results were assessed by counting the wells in which the medium turned yellow for each experimental condition.

[8] = system: B16-F10 murine melanoma cell line; test: Cytotoxicity in B16-F10 cells (MTT); format: cell-based; conditions: 48 h
Description: In order to determine safe doses of compounds for testing the inhibition of melanogenesis in a murine melanoma cell line, cytotoxicity tests were performed. Cytotoxicity was determined by the colorimetric method using MTT ([3-(4,5-dimethyl-2-thiazolyl)-2,5-diphenyl-2H-tetrazolium bromide, Sigma M5655). For this purpose, cells were transferred to 96-well plates in an amount of 5000/well. After 24 h of culture in an incubator in F 10-Ham medium with 1% FBS, the tested compounds at various concentrations were added to the wells together with fresh medium. DMSO was added to the medium in a negative control. The MTT test was performed after further culture for 48 h. Then the medium was removed and the formed formazan crystals were dissolved in DMSO. The absorbance was measured at 570 nm in a plate reader and the result was compared to the control (DMSO), which was 100%. The percentage of viability was calculated using the formula: [AT/AC^∗100], where AT is the absorbance of the test sample, AC - absorbance of the control sample. Table 3. Results of inhibiting the activity of monophenolase […] tyrosinase and cytotoxicity testing in B16F10 cells for the described compounds.

[9] = Lipophilicity coefficient RM0 by reversed phase thin layer chromatography; format: physicochemical; conditions: RP-18 TLC, methanol / 100 mM phosphate buffer pH = 7.4
Description: Confirmation of the identity and purity of the obtained compounds consisted in the registration and interpretation of ^1H NMR and ^13C NMR spectra (the spectra were recorded using an ECZR 500 MHz (JEOL) series FT-NMR spectrophotometer), as well as the registration and interpretation of LC-MS spectra (the spectra were recorded using Acquita UPLC system (Waters) coupled with a Waters TQD mass spectrometer). The melting point was measured using the open capillary method in the IA9300 device (Electrothermal). The lipophilicity coefficient RM0 was determined by reversed phase thin layer chromatography. In the study, aluminum plates 20x20 cm covered with modified silica gel RP-18 F254 (Merck) were used as the solid phase. The mobile phase consisted of solutions of methanol and 100 mM phosphate buffer (pH = 7.4), characterized by a variable methanol content ranging from 95 to 65% (v/v). The tested compounds were dissolved in methanol to obtain solutions with a concentration of 1 mg/mL. Then, 5 µL of the solutions prepared in this way were transferred to the starting line on aluminum plates, which were then placed in chromatographic chambers previously saturated with mobile phase vapors for at least 1 hour. All activities, including the development of chromatograms, were carried out at room temperature. After developing the chromatograms to approximately 1-2 cm from the end of the plate, the plates were dried and then the distance traveled by the tested compounds was visualized under UV light (λ = 254 nm). The experiment was performed in duplicate for the specified conditions. For all samples, Rf was calculated according to the formula Rf = a/b, where a - the distance traveled by the tested compound, b - the distance traveled by the mobile phase. Then, the RM parameter was calculated for all samples according to the formula RM = log(1/Rf - 1), obtaining a linear relationship between the RM values and the methanol concentration in the mobile phase. The logP coefficient was also calculated using the following computer programs: ACD/ChemSketch 2020.1.2 and ChemDraw 20.0.0.41. Table 2. The physicochemical data of the compounds are presented below

E. coli WP2 = test: Ames microplate test, E. coli WP2; conditions: without S9;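 note: bacteria treated 90 min at 37 °C in 24-well plates, then indicator medium dispensed to 384-well plates and incubated 48 h before yellow-well counting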
Description: as §3

[10] = system: human reconstructed epidermis Episkin™; test: Skin irritation test in reconstructed human epidermis (Episkin); conditions: 5% aqueous, 15 min exposure, 42 h incubation
Description: The study used human reconstructed epidermis Episkin™ with an area of 1.07 cm^2. Immediately after receipt, the tissue was transferred to fresh medium and cultured in an incubator (37 °C, 5% CO2) for 18 hours. Before performing experiments, the inserts were washed with sterile PBS and placed in the wells of a 12-well plate containing 2 mL of fresh culture medium. […] After 15 min of exposure, samples were washed with PBS (5x5 mL). The inserts were transferred to plates with fresh culture medium and incubated for 42 hours (37 °C, 5% CO2). After this time, the entire medium was collected to assess the amount of released interleukin 1α (the medium was stored at -20 °C until the experiment was performed), and the inserts were transferred to the MTT solution. […] Measurement of the absorbance of the samples obtained in this way at 570 nm enabled the assessment of tissue viability according to the formula: % Viability = [OD (570 nm) for the tested compound/OD (570 nm) for the control] × 100.

[11] = reference [7], read-out: IC50, tyrosinase inhibition
[12] = reference [6], read-out: IC50, tyrosinase diphenolase activity

Structure (SMILES): CCOC(=O)[C@H](Cc1ccccc1)NC(=O)C=Cc1ccc(O)c(OC)c1 (stereo in doubt) [N-[3-(4-hydroxy-3-methoxyphenyl)-1-oxo-2-propen-1-yl]-L-phenylalanine ethyl ester]
- type of inhibition (tyrosinase [1]): mixed type of inhibition
- IC50 (tyrosinase [1]; read-out: IC50, tyrosinase inhibition): 0.185 ± 0.005 µM

Structure (SMILES): O=C(O)C=Cc1ccc(Cl)cc1Cl [2,4-dichlorocinnamic acid]
- IC50 (tyrosinase [2]; [11]): 295 µM
- mechanism of tyrosinase inhibition (tyrosinase [2]): reversible non-competitive mechanism

Structure (SMILES): O=C(O)C=Cc1ccccc1Cl [2-Chlorocinnamic acid]
- IC50 (tyrosinase [2]; [11]): 765 µM
- mechanism of tyrosinase inhibition (tyrosinase [2]): reversible non-competitive mechanism

Structure (SMILES): O=C(O)C=Cc1ccc(O)cc1 [4-Hydroxycinnamic acid]
- IC50 (tyrosinase [2]; [12]): 500 µM
- inhibition of erythema formation [3]: 77%

Structure (SMILES): COc1ccc(C=CC(=O)O)cc1 [4-methoxycinnamic acid]
- IC50 (tyrosinase [2]; [12]): 420 µM

Structure (SMILES): CN(C)CCCN1c2ccccc2Sc2ccc(Cl)cc21 [Chlorpromazine, reference compound]
- phototoxic potential [4]: clearly indicate its phototoxic potential
- IC50 ([4]; Mus musculus, BALB/c3T3): 18.6 mg/L (≈ 58.2 µM)
- MPE ([4]; mouse, 1 h): 0.499
- PIF ([4]; mouse, 1 h): 25.618
- Viability [% relative to water] ± SD [5]: 99.52±9.41 % relative to water

Structure (SMILES): O=C(O)C=Cc1ccccc1 [Cinnamic acid]
- mechanism of tyrosinase inhibition (tyrosinase [2]): non-competitive inhibitor

Structure (SMILES): CC(CO)NC(=O)/C=C/c1ccc(Cl)cc1 (stereo not shown) [Compound A-102, (2E)-3-(4-chlorophenyl)-N-(1-hydroxypropan-2-yl)prop-2-enamide]
- DB (dicentric bridges in 1000 binucleate cells) ([6]; 100 µM): 4.0 ± 2.8
- MN (number of micronuclei in 1000 binucleate cells) ([6]; 100 µM): 10.5 ± 2.1
- NB (nuclear buds in 1000 binucleate cells) ([6]; 100 µM): 5.5 ± 2.1
- NDI (nuclear division index) ([6]; 100 µM): 1.54
- DB (dicentric bridges in 1000 binucleate cells) ([6]; 150 µM): 2.5 ± 2.1
- MN (number of micronuclei in 1000 binucleate cells) ([6]; 150 µM): 6.5 ± 2.1
- NB (nuclear buds in 1000 binucleate cells) ([6]; 150 µM): 6.5 ± 2.1
- NDI (nuclear division index) ([6]; 150 µM): 1.54
- DB (dicentric bridges in 1000 binucleate cells) ([6]; 200 µM): 3.0 ± 1.4
- MN (number of micronuclei in 1000 binucleate cells) ([6]; 200 µM): 8.5 ± 0.7
- NB (nuclear buds in 1000 binucleate cells) ([6]; 200 µM): 4.0 ± 1.4
- NDI (nuclear division index) ([6]; 200 µM): 1.60
- Increase in the number of yellow wells compared to the reference level (S. typhimurium TA100; 0.5 mM): 1.08
- Increase in the number of yellow wells compared to the reference level (S. typhimurium TA100; 1.0 mM): 0.75
- Increase in the number of yellow wells compared to the reference level (S. typhimurium TA100; 2.0 mM): 0.92
- Increase in the number of yellow wells compared to the reference level (S. typhimurium TA1537; 0.5 mM): 0.33
- Increase in the number of yellow wells compared to the reference level (S. typhimurium TA1537; 1.0 mM): 0.00
- Increase in the number of yellow wells compared to the reference level (S. typhimurium TA1537; 2.0 mM): 1.00
- Increase in the number of yellow wells compared to the reference level (S. typhimurium TA98; 0.5 mM): 0.24
- Increase in the number of yellow wells compared to the reference level (S. typhimurium TA98; 1.0 mM): 0.24
- Increase in the number of yellow wells compared to the reference level (S. typhimurium TA98; 2.0 mM): 0.35
- % Viability [mean] ([7]; 100 µM): 84.7%
- % Viability [mean] ([7]; 150 µM): 69.9%
- % Viability [mean] ([7]; 200 µM): 87.2%
- Tyrosinase inhibition with L-DOPA [%] (tyrosinase from mushroom; L-DOPA): 53.02±1.99% (500 µM)
- IC50 (tyrosinase from mushroom; L-DOPA, read-out: Tyrosinase inhibition with L-DOPA, IC50): 440 µM
- Tyrosinase inhibition with L-tyrosine [%] (tyrosinase from mushroom; L-tyrosine): 75.45±1.80% (500 µM)
- IC50 (tyrosinase from mushroom; L-tyrosine, read-out: Tyrosinase inhibition with L-tyrosine, IC50): 164 µM
- Increase in the number of yellow wells compared to the reference level (S. typhimurium TA1535; 0.5 mM): 0.55
- Increase in the number of yellow wells compared to the reference level (S. typhimurium TA1535; 1.0 mM): 0.14
- Increase in the number of yellow wells compared to the reference level (S. typhimurium TA1535; 2.0 mM): 0.89
- Cytotoxicity study in B16F10 cells % viability ([8]; 150 µM): 80.6%
- Cytotoxicity study in B16F10 cells % viability ([8]; 200 µM): 83.5%
- Cytotoxicity study in B16F10 cells % viability ([8]; 250 µM): 75.7%
- RM0 [9]: 2.12
- Increase in the number of yellow wells compared to the reference level (E. coli WP2; 0.5 mM): 0.48
- Increase in the number of yellow wells compared to the reference level (E. coli WP2; 1.0 mM): 1.03
- Increase in the number of yellow wells compared to the reference level (E. coli WP2; 2.0 mM): 0.79

Structure (SMILES): CCCCCCCCCCCCOS(=O)(=O)[O-].[Na+] [SDS, sodium lauryl sulfate]
- tissue viability ([10]; compared to the negative control (PBS and PEG400)): 23.8%
- IL-1α concentration in the culture medium ([10]; positive control): > 250 pg/mL
